Like-named read-outs stand apart in the source and are kept apart here.
Legend:
OCI-LY10 = assay: CTG Cell Viability Assay - OCI-LY10; assay type: cell-based, human; conditions: OCI-LY10, 4 days, read-out: CTG Cell Viability Assay - OCI-LY10: Average external-IC50
Experimental: Compound-mediated viability effect on OCI-LY10 or TMD8 was quantitatively determined using the CellTiter-Glo® Luminescent Cell Viability Assay kit from Promega (Catalog number G7570) following manufacturer's recommended procedures. […] Compounds were then added to the assay plate with final top concentration of 10 μM and 1:3 dilution series with total of 9 doses. The final DMSO concentration was normalized to 0.2%. The assay plates were incubated at 37° C. for 4 days under 5% CO2. Then the assay plate was equilibrated at room temperature for 10 minutes. […] The data was then analyzed by software Prism 7.0 from GraphPad and the dose response curves were fit using a three-parameter logistic equation to calculate IC50.

IRAK4 = IRAK4 (Homo sapiens (Human), UniProt Q9NWZ3); assay: IRAK4 MSD degradation in OCI-LY10; assay type: cell-based
Experimental: Degradation of IRAK4 in OCI-LY10 was quantitatively measured using Meso Scale Discovery technology. […] Compounds were then added to the assay plates with a final top concentration of 1 to 10 μM in a 1:3 dilution series with total of 8 doses. The assay plates were then incubated for 4 to 24 hours at 37° C. under 5% CO2. […] To prepare MSD assay plates (Meso Scale Discovery Catalog number L15XA-3), the plates were coated with […] capture antibody (mouse Anti-IRAK4 antibody [2H9], ab119942) in PBS, at 40 μL/well. […] Cell lysates were then added to MSD assay plates and the plates were incubated at room temperature for 1 hour. The plates were then washed 3 times with 150 μL/well TBST buffer and 25 μL/well primary detection antibody (rabbit Anti-IRAK4 antibody [Y279], from Abcam. Catalog number ab32511, […]). The assay plates were then incubated at room temperature for 1 hour, washed 3 times with 150 μL/well TBST buffer and 25 µL/well secondary detection antibody, SULFO-TAG anti-rabbit antibody were added (anti rabbit antibody from Meso Scale Discovery, Catalog number R32AB-1, 1 μg/mL). The assay plates were then incubated at room temperature for 1 hour, washed 3 times with 150 μL/well TB ST buffer, and 150 μL/well MSD reading buffer (Meso Scale Discovery catalog number R92TC-2) was added. The plates were then analyzed by a MSD reader (Meso Scale Discovery, Model Quick Plex SQ 120). The data was then analyzed by software Prism 7.0 from GraphPad and the dose-depended IRAK4 degradation were fit using a three-parameter logistic equation to calculate DC50.

[1] = OCI-LY10, 4 hrs, MSD, read-out: IRAK4 MSD degradation in OCI-LY10 at 4 hrs: Average external-Abs DC50
[2] = OCI-LY10, 24 hrs, MSD, read-out: IRAK4 MSD degradation in OCI-LY10 at 24 hrs: Average external-Abs DC50

Chain of IRAK4 (Q9NWZ3 whole entry): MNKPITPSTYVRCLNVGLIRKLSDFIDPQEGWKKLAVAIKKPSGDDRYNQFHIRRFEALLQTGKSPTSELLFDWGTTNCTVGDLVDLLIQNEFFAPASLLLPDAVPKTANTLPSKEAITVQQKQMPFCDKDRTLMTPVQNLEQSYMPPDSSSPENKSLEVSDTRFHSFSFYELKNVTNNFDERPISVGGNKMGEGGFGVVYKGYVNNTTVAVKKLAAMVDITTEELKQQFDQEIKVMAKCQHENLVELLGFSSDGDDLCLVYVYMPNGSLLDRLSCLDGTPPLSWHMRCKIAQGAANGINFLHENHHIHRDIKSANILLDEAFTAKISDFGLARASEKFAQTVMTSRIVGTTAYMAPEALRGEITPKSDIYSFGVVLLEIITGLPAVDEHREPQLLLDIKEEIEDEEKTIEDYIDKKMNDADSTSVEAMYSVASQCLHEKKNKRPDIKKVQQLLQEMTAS

Compound | IC50 (OCI-LY10; Homo sapiens, OCI-Ly10, 96 h) | DC50 (IRAK4; [1]) | other results
CC[C@@H]1CC(=O)N[C@@H]1COc1ncc(C#C[C@H]2CC[C@H](CN(C)CCCOCCCc3cccc4c3n(C)c(=O)n4C3CCC(=O)NC3=O)CC2)c2cc(C(N)=O)c(OC)cc12 (some centres unmarked) [I-219] | > 1000 nM | 10 to 100 nM | DC50 (IRAK4; [2]): 10 to 100 nM
Cn1c(=O)n(C2CCC(=O)NC2=O)c2ccc(CN3CCC(CCCN4CCC(n5cc(NC(=O)c6coc(-c7ccnc(NCC8CC8)c7)n6)c(C(F)F)n5)CC4)CC3)cc21 (centres unmarked) [I-254] | 100 to 500 nM | 10 to 100 nM | 
CN(CCCOCCCc1cccc2c1n(C)c(=O)n2[C@@H]1CCC(=O)NC1=O)C[C@H]1CC[C@H](n2cc(NC(=O)c3coc(-c4ccnc(NCC5CC5)c4)n3)c(C(F)F)n2)CC1 (single isomer, unassigned) [I-307] | > 1000 nM | 10 to 100 nM | 
O=C1CCC(N2C(=O)c3cccc(N4CCC(CCCN5CCC(n6cc(NC(=O)c7cnn8ccc(N[C@@H]9CCCC[C@@H]9O)nc78)c(C(F)F)n6)CC5)CC4)c3C2=O)C(=O)N1 (some centres unmarked) [I-298] | 100 to 500 nM | 100 to 1000 nM | 
Cn1c(=O)n(C2CCC(=O)NC2=O)c2ccc(CN3CCN([C@@H]4CCN(C[C@H]5CC[C@H](n6cc(NC(=O)c7coc(-c8ccnc(NCC9CC9)c8)n7)c(C(F)F)n6)CC5)C4)CC3)cc21 (some centres unmarked) [I-110] | > 1000 nM |  | 
CC[C@@H]1[C@H](F)C(=O)N[C@@H]1COc1ncc(C#CC2CCN(CCCC3CCN(c4cccc5c4C(=O)N(C4CCC(=O)NC4=O)C5=O)CC3)CC2)c2cc(C(N)=O)c(OC)cc12 (some centres unmarked) [I-234] | > 1000 nM | 100 to 1000 nM | DC50 (IRAK4; [2]): 10 to 100 nM
Cn1c(=O)n(C2CCC(=O)NC2=O)c2cccc(CCCOC3CCN(C[C@H]4CC[C@H](n5cc(NC(=O)c6cnn7ccc(N[C@@H]8CCCC[C@H]8O)nc67)c(C(F)F)n5)CC4)CC3)c21 (some centres unmarked) [I-293] | > 1000 nM | 10 to 100 nM | 
Cn1c(=O)n(C2CCC(=O)NC2=O)c2cccc(C3CCN(C[C@H]4CC[C@H](n5cc(NC(=O)c6cnn7ccc(N8CCOCC8)nc67)c(C(F)F)n5)CC4)CC3)c21 (some centres unmarked) [I-199] | > 1000 nM | 100 to 1000 nM | 
CN(CCCOCCCNc1cccc2c1C(=O)N(C1CCC(=O)NC1=O)C2=O)C[C@H]1CC[C@H](n2cc(NC(=O)c3coc(-c4ccnc(N[C@H]5CCCC[C@H]5O)c4)n3)c(C(F)F)n2)CC1 (some centres unmarked) [I-398] | 50 to 100 nM | 10 to 100 nM | DC50 (IRAK4; [2]): 10 to 100 nM
Cn1c(=O)n(C2CCC(=O)NC2=O)c2cccc(CCCOCCOCCOCCOCC(=O)N3CCN([C@H]4CC[C@H](Nc5ncnc6[nH]cc(C7CCOCC7)c56)CC4)CC3)c21 (some centres unmarked) [I-53] | > 1000 nM | 100 to 1000 nM | DC50 (IRAK4; [2]): 10 to 100 nM
Cn1c(=O)n(C2CCC(=O)NC2=O)c2cccc(CCCOC3CCN(C(=O)[C@H]4CC[C@H](n5cc(NC(=O)c6cnn7ccc(N8CCOCC8)nc67)c(C(F)F)n5)CC4)CC3)c21 (some centres unmarked) [I-149] | > 1000 nM | < 10 nM | 
O=C1CCC(n2c(=O)oc3cc(CCCOC4CCN(C[C@H]5CC[C@H](n6cc(NC(=O)c7cnn8ccc(N9CCNCC9)nc78)c(C(F)F)n6)CC5)CC4)ccc32)C(=O)N1 (some centres unmarked) [I-166] | > 1000 nM | 10 to 100 nM | 
CN(CC1CCC(n2cc(NC(=O)c3cnn4ccc(N5C[C@H]6C[C@@H]5CO6)nc34)c(C(F)F)n2)CC1)[C@H]1C[C@H](Nc2cccc3c2C(=O)N(C2CCC(=O)NC2=O)C3=O)C1 (some centres unmarked) [I-457] | > 1000 nM |  | DC50 (IRAK4; OCI-LY10, 4 hrs, read-out: IRAK4 MSD degradation in OCI-LY10 at 4 hrs: DC50): 100 to 1000 nM; DC50 (IRAK4; OCI-LY10, 24 hrs, read-out: IRAK4 MSD degradation in OCI-LY10 at 24 hrs: DC50): > 1000 nM
CN(CCOCCCc1cccc2c1n(C)c(=O)n2C1CCC(=O)NC1=O)C[C@H]1CC[C@H](n2cc(NC(=O)c3coc(-c4ccnc(NCC5CC5)c4)n3)c(C(F)F)n2)CC1 (some centres unmarked) [I-124] | > 1000 nM |  | 
Cn1c(=O)n(C2CCC(=O)NC2=O)c2cccc(-c3ccc4nn(CCOC[C@H]5CC[C@H](n6cc(NC(=O)c7cnn8ccc(N9CCOCC9)nc78)c(C(F)F)n6)CC5)cc4c3)c21 (some centres unmarked) [I-406] | > 1000 nM |  | 
CN(CC[C@H]1CN(CCCc2cccc3c2n(C)c(=O)n3C2CCC(=O)NC2=O)CCO1)C[C@H]1CC[C@H](n2cc(NC(=O)c3coc(-c4ccnc(NCC5CC5)c4)n3)c(C(F)F)n2)CC1 (some centres unmarked) [I-117] | > 1000 nM |  | 
Cn1c(=O)n(C2CCC(=O)NC2=O)c2cccc(CCCOC3CN(C[C@H]4CC[C@H](n5cc(NC(=O)c6coc(-c7ccnc(NCC8CC8)c7)n6)c(C(F)F)n5)CC4)C3)c21 (some centres unmarked) [I-122] | > 1000 nM |  | 

Compound | IC50 (OCI-LY10; Homo sapiens, OCI-Ly10, 96 h) | DC50 (IRAK4; [1]) | other results
Cn1c(=O)n(C2CCC(=O)NC2=O)c2ccc(CCCOCC3CCN(C[C@H]4CC[C@H](n5cc(NC(=O)c6coc(-c7ccnc(NCC8CC8)c7)n6)c(C(F)F)n5)CC4)CC3)cc21 (some centres unmarked) [I-119] | > 1000 nM |  | 
CN(C[C@@H]1CN(CCNCc2ccc3c(c2)n(C)c(=O)n3C2CCC(=O)NC2=O)CCO1)C[C@H]1CC[C@H](n2cc(NC(=O)c3coc(-c4ccnc(NCC5CC5)c4)n3)c(C(F)F)n2)CC1 (some centres unmarked) [I-109] | > 1000 nM |  | 
CN(CCOCCCc1ccc2c(c1)n(C)c(=O)n2C1CCC(=O)NC1=O)C[C@H]1CC[C@H](n2cc(NC(=O)c3coc(-c4ccnc(NCC5CC5)c4)n3)c(C(F)F)n2)CC1 (some centres unmarked) [I-128] | > 1000 nM |  | 
CN1C(=O)CCC(n2c(=O)n(C)c3c(C#CCOC4CCN(C[C@H]5CC[C@H](n6cc(NC(=O)c7cnn8ccc(N9C[C@H]%10C[C@@H]9CO%10)nc78)c(C(F)F)n6)CC5)CC4)cccc32)C1=O (stereo partly drawn) [I-563, N-[3-(difluoromethyl)-1-[4-[[4-[3-[3-methyl-1-(1-methyl-2,6-dioxo-3-piperidyl)-2-oxo-benzimidazol-4-yl]prop-2-ynoxy]-1-piperidyl]methyl]cyclohexyl]pyrazol-4-yl]-5-[(1R,4R)-2-oxa-5-azabicyclo [2.2.1]heptan-5-yl] pyrazolo[1,5-a] pyrimidine-3-carboxamide] |  |  | IC50 (OCI-LY10; Homo sapiens, 96 h): > 1000 nM
Cn1c(=O)n(C2CCC(=O)NC2=O)c2cccc(CCCOCC(F)CNC(=O)c3cnc(-n4ncc5cc(C#N)cnc54)cc3NC3CC3)c21 (centres unmarked) [I-137] | > 1000 nM |  | 
CN(C[C@@H]1CN(CCNCc2ccc3c(c2)n(C)c(=O)n3C2CCC(=O)NC2=O)CCO1)C(=O)[C@H]1CC[C@H](n2cc(NC(=O)c3coc(-c4ccnc(NCC5CC5)c4)n3)c(C(F)F)n2)CC1 (some centres unmarked) [I-106] | > 1000 nM |  | 
CN(CCCOCC#Cc1ccc2c(c1)n(C)c(=O)n2C1CCC(=O)NC1=O)C[C@H]1CC[C@H](n2cc(NC(=O)c3coc(-c4ccnc(NCC5CC5)c4)n3)c(C(F)F)n2)CC1 (some centres unmarked) [I-126] | > 1000 nM |  | 
CN(CC1CCC(n2cc(NC(=O)c3coc(-c4ccnc(NCC5CC5)c4)n3)c(C(F)F)n2)CC1)C[C@H]1CN(CCCc2cccc3c2n(C)c(=O)n3C2CCC(=O)NC2=O)CCO1 (some centres unmarked) [I-113] | > 1000 nM |  | 
Cn1c(=O)n(C2CCC(=O)NC2=O)c2ccc(CCCOC3CN(C[C@H]4CC[C@H](n5cc(NC(=O)c6coc(-c7ccnc(NCC8CC8)c7)n6)c(C(F)F)n5)CC4)C3)cc21 (some centres unmarked) [I-121] | > 1000 nM |  | 
O=C1CCC(n2c3ccccc3c3c(CCCOC4CCN(CC5CCC(n6cc(NC(=O)c7coc(-c8ccnc(NCC9CC9)c8)n7)c(C(F)F)n6)CC5)CC4)ccnc32)C(=O)N1 (centres unmarked) [I-123] | 500 to 1000 nM |  | 
CN(CC[C@@H]1CN(CCCc2cccc3c2n(C)c(=O)n3C2CCC(=O)NC2=O)CCO1)C[C@H]1CC[C@H](n2cc(NC(=O)c3coc(-c4ccnc(NCC5CC5)c4)n3)c(C(F)F)n2)CC1 (some centres unmarked) [I-116] | > 1000 nM |  | 
Cn1c(=O)n(C2CCC(=O)NC2=O)c2cccc(CCCOC3CCN(C[C@H]4CC[C@H](n5cc(NC(=O)c6cnn7ccc(N8CCNCC8)nc67)c(C(F)F)n5)CC4)CC3)c21 (some centres unmarked) [I-125] | > 1000 nM |  | 
CN1C(=O)C(C2CCC(=O)NC2=O)c2cccc(CCCOC3CCN(CC4CCC(n5cc(NC(=O)c6cnn7ccc(NC8CCCCC8O)nc67)c(C(F)F)n5)CC4)CC3)c21 (centres unmarked) [I-290] |  |  | IC50 (OCI-LY10): > 1000 nM
CC1C(=O)N(C2CCC(=O)NC2=O)c2cccc(C3CCN(CCCN(C)C[C@H]4CC[C@H](n5cc(NC(=O)c6coc(-c7ccnc(NCC8CC8)c7)n6)c(C(F)F)n5)CC4)CC3)c21 (some centres unmarked) [I-114] |  |  | IC50 (OCI-LY10): 100 to 500 nM
Cn1c(=O)n(C2CCC(=O)NC2=O)c2cccc(-c3ccc4c(cnn4CCOC[C@H]4CC[C@H](n5cc(NC(=O)c6cnn7ccc(N8CCOCC8)nc67)c(C(F)F)n5)CC4)c3)c21 (some centres unmarked) [I-405] | > 1000 nM |  | 
Cn1c(=O)n(C2CCC(=O)NC2=O)c2ccc(C#CC3CCN(C[C@H]4CC[C@H](n5cc(NC(=O)c6coc(-c7ccnc(NCC8CC8)c7)n6)c(C(F)F)n5)CC4)CC3)cc21 (some centres unmarked) [I-111] | > 1000 nM |  | 

— patent US11352350B2, “IRAK degraders and uses thereof” (Kymera Therapeutics, Inc., priority 2018, dated 2022)
